Reference: patent US12454529B2, “Piperazine cyclic ureas” (SIRONAX LTD., priority 2020, dated 2025)
Read-outs that look alike come from different tables or passages of the source.

Test system: HT-29 cells
Test: HT-29 cell necrosis/necroptosis inhibition (TNF-α + SMAC mimetic + zVAD-FMK; CellTiter-Glo cell viability)
Assay type: cell-based
Settings: Homo sapiens, read-out: EC50 (Cell activity; Necrosis/Necroptosis Inhibitory Activity, Compounds 1-142)
Procedure, shortened: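 Necroptosis was driven by TNF-α 10 ng/ml plus SMAC mimetic 6 μM and zVAD-FMK 10 μM in serum-free medium, with compounds as a 10-point threefold titration. After 20 h at 37 °C, ATP-based luminescence was read; EC50 values are geometric means of duplicate curves.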

[1] = HT-29 cells, TNF-α 10 ng/ml + SMAC mimetic 6 μM + zVAD-FMK 10 μM, 20 hours, geometric mean, 10 points in duplicate

## COC(=O)c1cc(C)n(-c2nc(N3CCN(C(=O)N4N=CC[C@H]4c4cc(F)cc(F)c4)CC3)ncc2F)c1 [Compound 91, methyl (5)-1-(2-(4-(5-(3,5-difluorophenyl)-4,5-dihydro-1H-pyrazole-1-carbonyl)piperazin-1-yl)-5-fluoropyrimidin-4-yl)-5-methyl-1H-pyrrole-3-carboxylate]
[1]
  EC50: 0.1 to 100 nM

## Cc1cc(C(N)=O)cn1-c1nc(N2CCN(C(=O)N3N=CC[C@H]3c3cc(F)cc(F)c3)CC2)ncc1F [Compound 92, (S)-1-(2-(4-(5-(3,5-difluorophenyl)-4,5-dihydro-1H-pyrazole-1-carbonyl)piperazin-1-yl)-5-fluoropyrimidin-4-yl)-5-methyl-1H-pyrrole-3-carboxamide]
[1]
  EC50: 0.1 to 100 nM

## Cc1n[nH]c(C)c1-c1nc(N2CCN(C(=O)N3N=CC[C@H]3c3cc(F)cc(F)c3)CC2)ncc1F [Compound 93, (S)-(5-(3,5-difluorophenyl)-4,5-dihydro-1H-pyrazol-1-yl)(4-(4-(3,5-dimethyl-1H-pyrazol-4-yl)-5-fluoropyrimidin-2-yl)piperazin-1-yl)methanone]
[1]
  EC50: 0.1 to 100 nM

## Cc1n[nH]c(C)c1-c1nc(N2CCN(C(=O)N3N=CC[C@H]3c3cc(F)cc(C#N)c3)CC2)ncc1F [Compound 94, (S)-3-(1-(4-(4-(3,5-dimethyl-1H-pyrazol-4-yl)-5-fluoropyrimidin-2-yl)piperazine-1-carbonyl)-4,5-dihydro-1H-pyrazol-5-yl)-5-fluorobenzonitrile]
[1]
  EC50: 0.1 to 100 nM

## Cc1nn(-c2nc(N3CCN(C(=O)N4N=CC[C@H]4c4cc(F)cc(F)c4)CC3)ncc2F)c(=O)n1C [Compound 95, (S)-2-(2-(4-(5-(3,5-difluorophenyl)-4,5-dihydro-1H-pyrazole-1-carbonyl)piperazin-1-yl)-5-fluoropyrimidin-4-yl)-4,5-dimethyl-2,4-dihydro-3H-1,2,4-triazol-3-one]
[1]
  EC50: 0.1 to 100 nM

## Cc1nn(-c2nc(N3CCN(C(=O)N4N=CC[C@H]4c4cc(F)cc(C#N)c4)CC3)ncc2F)c(=O)n1C [Compound 96, (S)-3-(1-(4-(4-(3,4-dimethyl-5-oxo-4,5-dihydro-1H-1,2,4-triazol-1-yl)-5-fluoropyrimidin-2-yl)piperazine-1-carbonyl)-4,5-dihydro-1H-pyrazol-5-yl)-5-fluorobenzonitrile]
[1]
  EC50: 0.1 to 100 nM

## CCn1c(C)nn(-c2nc(N3CCN(C(=O)N4N=CC[C@H]4c4cc(F)cc(C#N)c4)CC3)ncc2F)c1=O [Compound 97, (S)-3-(1-(4-(4-(4-ethyl-3-methyl-5-oxo-4,5-dihydro-1H-1,2,4-triazol-1-yl)-5-fluoropyrimidin-2-yl)piperazine-1-carbonyl)-4,5-dihydro-1H-pyrazol-5-yl)-5-fluorobenzonitrile]
[1]
  EC50: 0.1 to 100 nM

## CCn1c(C)nn(-c2nc(N3CCN(C(=O)N4N=CC[C@H]4c4cc(F)cc(F)c4)CC3)ncc2F)c1=O [Compound 98, (S)-2-(2-(4-(5-(3,5-difluorophenyl)-4,5-dihydro-1H-pyrazole-1-carbonyl)piperazin-1-yl)-5-fluoropyrimidin-4-yl)-4-ethyl-5-methyl-2,4-dihydro-3H-1,2,4-triazol-3-one]
[1]
  EC50: 0.1 to 100 nM

## Cc1nnnn1-c1ccnc(N2CCN(C(=O)N3N=CC[C@H]3c3cncc(C#N)c3)CC2)n1 [Compound 99, (S)-5-(1-(4-(4-(5-methyl-1H-tetrazol-1-yl)pyrimidin-2-yl)piperazine-1-carbonyl)-4,5-dihydro-1H-pyrazol-5-yl)nicotinonitrile]
HT-29, 20 h
  EC50: 0.1 to 100 nM

## Cc1nc(C)n(-c2ccnc(N3CCN(C(=O)N4N=CC[C@H]4c4cc(F)cc(F)c4)CC3)n2)n1 [Compound 100, (S)-(5-(3,5-difluorophenyl)-4,5-dihydro-1H-pyrazol-1-yl)(4-(4-(3,5-dimethyl-1H-1,2,4-triazol-1-yl)pyrimidin-2-yl)piperazin-1-yl)methanone]
[1]
  EC50: 0.1 to 100 nM

## NC(=O)c1cnn(-c2nc(N3CCN(C(=O)N4N=CC[C@H]4c4cc(F)cc(F)c4)CC3)ncc2F)c1 [Compound 101, (5)-1-(2-(4-(5-(3,5-difluorophenyl)-4,5-dihydro-1H-pyrazole-1-carbonyl)piperazin-1-yl)-5-fluoropyrimidin-4-yl)-1H-pyrazole-4-carboxamide]
[1]
  EC50: 0.1 to 100 nM

## N#Cc1cc(F)cc([C@@H]2CC=NN2C(=O)N2CCN(c3nccc(-n4cc(C(N)=O)cn4)n3)CC2)c1 [Compound 102, (S)-1-(2-(4-(5-(3-cyano-5-fluorophenyl)-4,5-dihydro-1H-pyrazole-1-carbonyl)piperazin-1-yl)pyrimidin-4-yl)-1H-pyrazole-4-carboxamide]
[1]
  EC50: 0.1 to 100 nM

## O=C(N1CCN(c2nccc(-n3nnnc3C(F)(F)F)n2)CC1)N1N=CC[C@H]1c1cccc(F)c1 [Compound 103, (S)-(5-(3-fluorophenyl)-4,5-dihydro-1H-pyrazol-1-yl)(4-(4-(5-(trifluoromethyl)-1H-tetrazol-1-yl)pyrimidin-2-yl)piperazin-1-yl)methanone]
[1]
  EC50: 0.1 to 100 nM

## O=C(N1CCN(c2nccc(-n3nnnc3C(F)(F)F)n2)CC1)N1N=CC[C@H]1c1ccccc1 [Compound 104, (S)-(5-phenyl-4,5-dihydro-1H-pyrazol-1-yl)(4-(4-(5-(trifluoromethyl)-1H-tetrazol-1-yl)pyrimidin-2-yl)piperazin-1-yl)methanone]
[1]
  EC50: 0.1 to 100 nM

## O=C(N1CCN(c2ncc(F)c(-c3[nH]nnc3C(F)(F)F)n2)CC1)N1N=CC[C@H]1c1cc(F)cc(F)c1 [Compound 105, (S)-(5-(3,5-difluorophenyl)-4,5-dihydro-1H-pyrazol-1-yl)(4-(5-fluoro-4-(4-(trifluoromethyl)-1H-1,2,3-triazol-5-yl)pyrimidin-2-yl)piperazinyl)methanone]
[1]
  EC50: 0.1 to 100 nM

## N#Cc1cccc([C@@H]2CC=NN2C(=O)N2CCN(c3nccc(-n4cc(C(N)=O)cn4)n3)CC2)c1 [Compound 106, (S)-1-(2-(4-(5-(3-cyanophenyl)-4,5-dihydro-1H-pyrazole-1-carbonyl)piperazin-1-yl)pyrimidin-4-yl)-1H-pyrazole-4-carboxamide]
[1]
  EC50: 0.1 to 100 nM

## N#Cc1cc(F)cc([C@@H]2CC=NN2C(=O)N2CCN(c3ncc(F)c(-n4cc(C(N)=O)cn4)n3)CC2)c1 [Compound 107, (S)-1-(2-(4-(5-(3-cyano-5-fluorophenyl)-4,5-dihydro-1H-pyrazole-1-carbonyl)piperazin-1-yl)-5-fluoropyrimidin-4-yl)-1H-pyrazole-4-carboxamide]
[1]
  EC50: 0.1 to 100 nM

## Cc1noc(C)c1-c1nc(N2CCN(C(=O)N3N=CC[C@H]3c3cc(F)cc(F)c3)CC2)ncc1F [Compound 108, (S)-(5-(3,5-difluorophenyl)-4,5-dihydro-1H-pyrazol-1-yl)(4-(4-(3,5-dimethylisoxazol-4-yl)-5-fluoropyrimidin-2-yl)piperazin-1-yl)methanone]
[1]
  EC50: 0.1 to 100 nM

## N#Cc1cccc([C@@H]2CC=NN2C(=O)N2CCN(c3ncc(F)c(-n4cc(C(N)=O)cn4)n3)CC2)c1 [Compound 109, (S)-1-(2-(4-(5-(3-cyanophenyl)-4,5-dihydro-1H-pyrazole-1-carbonyl)piperazin-1-yl)-5-fluoropyrimidin-4-yl)-1H-pyrazole-4-carboxamide]
[1]
  EC50: 0.1 to 100 nM

## NC(=O)c1cnn(-c2nc(N3CCN(C(=O)N4N=CC[C@H]4c4cccc(F)c4)CC3)ncc2F)c1 [Compound 110, (S)-1-(5-fluoro-2-(4-(5-(3-fluorophenyl)-4,5-dihydro-1H-pyrazole-1-carbonyl)piperazin-1-yl)pyrimidin-4-yl)-1H-pyrazole-4-carboxamide]
[1]
  EC50: 0.1 to 100 nM

## NC(=O)c1cnn(-c2nc(N3CCN(C(=O)N4N=CC[C@H]4c4ccccc4)CC3)ncc2F)c1 [Compound 111, (S)-1-(5-fluoro-2-(4-(5-phenyl-4,5-dihydro-1H-pyrazole-1-carbonyl)piperazin-1-yl)pyrimidin-4-yl)-1H-pyrazole-4-carboxamide]
[1]
  EC50: 0.1 to 100 nM

## N#Cc1cc(F)cc([C@@H]2CC=NN2C(=O)N2CCN(c3ncc(F)c(-c4ncc[nH]4)n3)CC2)c1 [Compound 112, (S)-3-fluoro-5-(1-(4-(5-fluoro-4-(1H-imidazol-2-yl)pyrimidin-2-yl)piperazine-1-carbonyl)-4,5-dihydro-1H-pyrazol-5-yl)benzonitrile]
[1]
  EC50: 0.1 to 100 nM

## Cc1cnn(C)c1-c1nc(N2CCN(C(=O)N3N=CC[C@H]3c3cc(F)cc(F)c3)CC2)ccc1F [Compound 113, (S)-(5-(3,5-difluorophenyl)-4,5-dihydro-1H-pyrazol-1-yl)(4-(6-(1,4-dimethyl-1H-pyrazol-5-yl)-5-fluoropyridin-2-yl)piperazin-1-yl)methanone]
[1]
  EC50: 0.1 to 100 nM

## Cc1cnn(C)c1-c1cc(N2CCN(C(=O)N3N=CC[C@H]3c3cc(F)cc(F)c3)CC2)ncc1F [Compound 114, (S)-(5-(3,5-difluorophenyl)-4,5-dihydro-1H-pyrazol-1-yl)(4-(4-(1,4-dimethyl-1H-pyrazol-5-yl)-5-fluoropyridin-2-yl)piperazin-1-yl)methanone]
[1]
  EC50: 0.1 to 100 nM

## Cc1cc(-c2nc(N3CCN(C(=O)N4N=CC[C@H]4c4cc(F)cc(F)c4)CC3)ccc2F)n(C)n1 [Compound 115, (S)-(5-(3,5-difluorophenyl)-4,5-dihydro-1H-pyrazol-1-yl)(4-(6-(1,3-dimethyl-1H-pyrazol-5-yl)-5-fluoropyridin-2-yl)piperazin-1-yl)methanone]
[1]
  EC50: 0.1 to 100 nM

## Cc1cc(-c2cc(N3CCN(C(=O)N4N=CC[C@H]4c4cc(F)cc(F)c4)CC3)ncc2F)n(C)n1 [Compound 116, (S)-(5-(3,5-difluorophenyl)-4,5-dihydro-1H-pyrazol-1-yl)(4-(4-(1,3-dimethyl-1H-pyrazol-5-yl)-5-fluoropyridin-2-yl)piperazin-1-yl)methanone]
[1]
  EC50: 0.1 to 100 nM

## CCn1nc(C)c(-c2nc(N3CCN(C(=O)N4N=CC[C@H]4c4cc(F)cc(F)c4)CC3)ncc2F)c1C [Compound 117, (S)-(5-(3,5-difluorophenyl)-4,5-dihydro-1H-pyrazol-1-yl)(4-(4-(1-ethyl-3,5-dimethyl-1H-pyrazol-4-yl)-5-fluoropyrimidin-2-yl)piperazin-1-yl)methanone]
HT-29, 20 h
  EC50: 0.1 to 100 nM
